Laboratory results published in article PMC6979384, “Characterization of the plant homeodomain (PHD) reader family for their histone tail interactions” (Epigenetics & Chromatin, 2020).
Where no end group is shown, it is not given here. [ ]: non-standard residue; d: D form. pS = N[C@@H](COP(=O)(O)O)C(=O)O

How the values were obtained:
Experiment in all cases: Histone peptide microarray
Assay type in all cases: binding, human
[1] = tested on: MLL5
Text: (§1) To more comprehensively define the histone interactions of the 31 PHD readers identified from the domain microarray analyses, we probed each on an alternate microarray platform containing a library of 293 synthetic histone peptides with single or combinatorial PTMs (Additional file 2: Figure S4 and Additional file 3: Table S2).
(§2) The 31 GST-tagged PHD readers identified in the PHD finger domain array were expressed and purified as previously. Histone peptide arrays and peptide pulldown assays were conducted as recently described (specifically, the optimized protocol from Petell et al. for the former).
(§3) Supplementary file 13072_2020_328_MOESM3_ESM.xlsx: Additional file 3: Table S2. […] Excel Tab Peptide List is a compiled list of the entire 293 histone peptide library with amino acid sequence ranges. […] Each number corresponds to the peptide number designated in Peptide List. Excel Tab Average Signals is a compiled set of binding data: chromatin reader at 0.5 μM vs. entire 293 peptide library. Data is presented as the average and standard deviation of 4 replicates. The average signals are colored to indicate signal intensity with green being strong and white being weak/low. […] Key: red= stronger relative binding; blue = weaker relative binding. Excel Tab Array info summary is a table summarizing the domains, sequence coverage, array signal range, and noise for each of the GST-tagged readers assayed on the peptide microarrays.

[2] = tested on: PHF13
Text: as §1, §2, §3

[3] = tested on: CHD4 (PPCC); settings: CHD4 (PPCC)
Text: as §1, §2, §3

[4] = tested on: ING1
Text: as §1, §2, §3

[5] = tested on: CHD5 (PPCC); settings: CHD5 (PPCC)
Text: as §1, §2, §3

[6] = tested on: ING3
Text: as §1, §2, §3

[7] = tested on: PHF23
Text: as §1, §2, §3

[8] = tested on: KDM7A; settings: KDM7A
Text: as §1, §2, §3

[9] = tested on: BPTF (PB); settings: BPTF (PB)
Text: as §1, §2, §3

[10] = tested on: MORC3 (CW); settings: MORC3 (CW)
Text: as §1, §2, §3

[11] = tested on: KDM5B (3); settings: KDM5B (3)
Text: as §1, §2, §3

[12] = tested on: PHF21A; settings: PHF21A
Text: as §1, §2, §3

[13] = tested on: PHF2
Text: as §1, §2, §3

[14] = tested on: SP140L; settings: SP140L
Text: as §1, §2, §3

[15] = tested on: CHD5 (PCC); settings: CHD5 (PCC)
Text: as §1, §2, §3

[16] = tested on: KDM5A (1); settings: KDM5A (1)
Text: as §1, §2, §3

[17] = tested on: PHRF1 (RP); settings: PHRF1 (RP)
Text: as §1, §2, §3

[18] = tested on: RAG2
Text: as §1, §2, §3

[19] = tested on: ING5
Text: as §1, §2, §3

[20] = tested on: PHF8
Text: as §1, §2, §3

[21] = tested on: KDM5A (3); settings: KDM5A (3)
Text: as §1, §2, §3

[22] = tested on: KDM5B (1); settings: KDM5B (1)
Text: as §1, §2, §3

[23] = tested on: TAF3
Text: as §1, §2, §3

[24] = tested on: KDM4C (TTP); settings: KDM4C (TTP)
Text: as §1, §2, §3

[25] = tested on: DIDO1
Text: as §1, §2, §3

[26] = tested on: ING4
Text: as §1, §2, §3

[27] = tested on: ING2
Text: as §1, §2, §3

[28] = tested on: DPF2 (PPC2W2); settings: DPF2 (PPC2W2)
Text: as §1, §2, §3

[29] = tested on: BAZ2B; settings: BAZ2B
Text: as §1, §2, §3

[30] = tested on: AIRE (PP); settings: AIRE (PP)
Text: as §1, §2, §3

[31] = tested on: TRIM66 (PB); settings: TRIM66 (PB)
Text: as §1, §2, §3

[32] = GST-tagged, arrays performed twice, n of 4
[33] = sheet "Array Heatmap", each array performed twice, total n = 4

H2AX (S139p): H2AX 132-142 (GKKATQA[pS]QEY; UniProt P16104 133-143, looked up, fragment)
Array Heatmap value (peptide array binding signal) ([1]; MLL5, GST-tagged, arrays performed twice, n of 4): 0.5137 | Array Heatmap value (peptide array binding signal) ([2]; PHF13, GST-tagged, arrays performed twice, n of 4): 0.6185 | Array Heatmap value (peptide array binding signal) [3, 32]: 0.5526 | Array Heatmap value (peptide array binding signal) ([4]; ING1, GST-tagged, arrays performed twice, n of 4): 0.495 | Array Heatmap value (peptide array binding signal) [5, 32]: 0.5731 | Array Heatmap value (peptide array binding signal) ([6]; ING3, GST-tagged, arrays performed twice, n of 4): 0.4704 | Array Heatmap value (peptide array binding signal) ([7]; PHF23, GST-tagged, arrays performed twice, n of 4): 0.5395 | Array Heatmap value (peptide array binding signal) [8, 32]: 0.4369 | Array Heatmap value (peptide array binding signal) [9, 32]: 0.3554 | Array Heatmap value (peptide array binding signal) [10, 32]: 0.3885 | Array Heatmap value (peptide array binding signal) [11, 32]: 0.5358 | Array Heatmap value (peptide array binding signal) [12, 32]: 0.4613 | Array Heatmap value (peptide array binding signal) ([13]; PHF2, GST-tagged, arrays performed twice, n of 4): 0.4467 | Array Heatmap value (peptide array binding signal) [14, 32]: 0.363 | Array Heatmap value (peptide array binding signal) [15, 32]: 0.7872 | Array Heatmap value (peptide array binding signal) [16, 32]: 0.5265 | Array Heatmap value (peptide array binding signal) [17, 32]: 0.411 | Array Heatmap value (peptide array binding signal) ([18]; RAG2, GST-tagged, arrays performed twice, n of 4): 0.2586 | Array Heatmap value (peptide array binding signal) ([19]; ING5, GST-tagged, arrays performed twice, n of 4): 0.3847 | Array Heatmap value (peptide array binding signal) ([20]; PHF8, GST-tagged, arrays performed twice, n of 4): 0.3729 | Array Heatmap value (peptide array binding signal) [21, 32]: 0.4478 | Array Heatmap value (peptide array binding signal) [22, 32]: 0.697 | Array Heatmap value (peptide array binding signal) ([23]; TAF3, GST-tagged, arrays performed twice, n of 4): 0.2793 | Array Heatmap value (peptide array binding signal) [24, 32]: 0.5256 | Array Heatmap value (peptide array binding signal) ([25]; DIDO1, GST-tagged, arrays performed twice, n of 4): 0.6489 | Array Heatmap value (peptide array binding signal) ([26]; ING4, GST-tagged, arrays performed twice, n of 4): 0.4783 | Array Heatmap value (peptide array binding signal) ([27]; ING2, GST-tagged, arrays performed twice, n of 4): 0.5973 | Array Heatmap value (peptide array binding signal) [28, 32]: 0.653 | Array Heatmap value (peptide array binding signal) [29, 32]: 0.5073 | Array Heatmap value (peptide array binding signal) [30, 32]: 0.5219 | Array Heatmap value (peptide array binding signal) [31, 32]: 0.5363

H2BK5me1: H2B 1-24 [Peptide H2BK5me1]
Array Heatmap value (peptide array signal) ([1]; MLL5, sheet "Array Heatmap", each array performed twice, total n = 4): 0.5838 | Array Heatmap value (peptide array signal) ([2]; PHF13, sheet "Array Heatmap", each array performed twice, total n = 4): 0.5791 | Array Heatmap value (peptide array signal) [3, 33]: 0.5519 | Array Heatmap value (peptide array signal) ([4]; ING1, sheet "Array Heatmap", each array performed twice, total n = 4): 0.5552 | Array Heatmap value (peptide array signal) [5, 33]: 0.5218 | Array Heatmap value (peptide array signal) ([6]; ING3, sheet "Array Heatmap", each array performed twice, total n = 4): 0.4514 | Array Heatmap value (peptide array signal) ([7]; PHF23, sheet "Array Heatmap", each array performed twice, total n = 4): 0.5121 | Array Heatmap value (peptide array signal) [8, 33]: 0.316 | Array Heatmap value (peptide array signal) [9, 33]: 0.3333 | Array Heatmap value (peptide array signal) [10, 33]: 0.347 | Array Heatmap value (peptide array signal) [11, 33]: 0.4454 | Array Heatmap value (peptide array signal) [12, 33]: 0.4511 | Array Heatmap value (peptide array signal) ([13]; PHF2, sheet "Array Heatmap", each array performed twice, total n = 4): 0.5195 | Array Heatmap value (peptide array signal) [14, 33]: 0.3691 | Array Heatmap value (peptide array signal) [15, 33]: 0.7328 | Array Heatmap value (peptide array signal) [16, 33]: 0.4431 | Array Heatmap value (peptide array signal) [17, 33]: 0.4244 | Array Heatmap value (peptide array signal) ([18]; RAG2, sheet "Array Heatmap", each array performed twice, total n = 4): 0.242 | Array Heatmap value (peptide array signal) ([19]; ING5, sheet "Array Heatmap", each array performed twice, total n = 4): 0.3396 | Array Heatmap value (peptide array signal) ([20]; PHF8, sheet "Array Heatmap", each array performed twice, total n = 4): 0.341 | Array Heatmap value (peptide array signal) [21, 33]: 0.4387 | Array Heatmap value (peptide array signal) [22, 33]: 0.6308 | Array Heatmap value (peptide array signal) ([23]; TAF3, sheet "Array Heatmap", each array performed twice, total n = 4): 0.2612 | Array Heatmap value (peptide array signal) [24, 33]: 0.4441 | Array Heatmap value (peptide array signal) ([25]; DIDO1, sheet "Array Heatmap", each array performed twice, total n = 4): 0.7058 | Array Heatmap value (peptide array signal) ([26]; ING4, sheet "Array Heatmap", each array performed twice, total n = 4): 0.4312 | Array Heatmap value (peptide array signal) ([27]; ING2, sheet "Array Heatmap", each array performed twice, total n = 4): 0.6238 | Array Heatmap value (peptide array signal) [28, 33]: 0.6733 | Array Heatmap value (peptide array signal) [29, 33]: 0.4388 | Array Heatmap value (peptide array signal) [30, 33]: 0.3816 | Array Heatmap value (peptide array signal) [31, 33]: 0.6209
